# Experimental data reported in patent US20250057893A1, “PHARMACEUTICAL COMPOSITION FOR PREVENTING OR TREATING CANCER OR INFLAMMATORY DISEASE” (ENTEROBIOME INC., priority 2021, published 2025).
# How the values were obtained:
# Type in all cases: cell-based
# [1] = system: Akkermansia muciniphila EB-AMDK39 strain; assay: Antimicrobial susceptibility, broth microdilution MIC (CLSI), isolated strain; conditions: for MIC: Akkermansia muciniphila, EBAMDK39STRAIN, read-out: MIC, test strain EB-AMDK39, broth microdilution
# [2] = system: Akkermansia muciniphila ATCC BAA-835; assay: Antimicrobial susceptibility, broth microdilution MIC (CLSI), type strain; conditions: for MIC: Akkermansia muciniphila, ATCCBAA835, broth microdilution, read-out: MIC, test strain ATCC BAA-835
# [3] = system: Bacteroides thetiotaomicron ATCC 29741; assay: Antimicrobial susceptibility, broth microdilution MIC (CLSI), QC strain; set-up: MIC, QC ATCC 297415: unit not given beside the values; conditions: for MIC: Bacteroides, ATCC 29741 / ATCC 297415, read-out: MIC, QC ATCC 297415
compound,measurement,setting,value
"O=C(N[C@H](CO)[C@H](O)c1ccc([N+](=O)[O-])cc1)C(Cl)Cl [CHL, chloramphenicol]",MIC,[1],8 µg/mL
same,"Susceptibility category by MIC breakpoints, CHL","[1]; EB-AMDK39, CHL breakpoints",S (≤8)
same,"Susceptibility category by MIC breakpoints, CHL","[2]; ATCC BAA-835, CHL breakpoints",S (≤8)
same,MIC,[2],4 µg/mL
same,MIC,[3],8 µg/mL
"CCC[C@@H]1C[C@@H](C(=O)N[C@@H]([C@H]2O[C@H](SC)[C@H](O)[C@@H](O)[C@H]2O)[C@H](C)Cl)N(C)C1 [CLI, clindamycin]",MIC,[1],> 64 µg/mL
same,"Susceptibility category by MIC breakpoints, CLI","[1]; EB-AMDK39, CLI breakpoints",R (≥8)
same,"Susceptibility category by MIC breakpoints, CLI","[2]; ATCC BAA-835, CLI breakpoints",S (≤2)
same,MIC,[2],≤ 0.125 µg/mL
"CO/N=C(\C(=O)N[C@@H]1C(=O)N2C(C(=O)O)=CCS[C@H]12)c1csc(N)n1 [CTZ, ceftizoxime]",MIC,[1],256 µg/mL
same,"Susceptibility category by MIC breakpoints, CTZ","[1]; EB-AMDK39, CTZ breakpoints",R (≥128)
same,"Susceptibility category by MIC breakpoints, CTZ","[2]; ATCC BAA-835, CTZ breakpoints",S (≤32)
same,MIC,[2],2 µg/mL
same,MIC,[3],16 µg/mL
"C[C@@H](O)[C@H]1C(=O)N2C(C(=O)O)=C(S[C@@H]3CN[C@H](C(=O)N(C)C)C3)[C@H](C)[C@H]12 [MEM, meropenem]",MIC,[1],4 µg/mL
same,"Susceptibility category by MIC breakpoints, MEM","[1]; EB-AMDK39, MEM breakpoints",S (≤4)
same,"Susceptibility category by MIC breakpoints, MEM","[2]; ATCC BAA-835, MEM breakpoints",S (≤4)
same,MIC,[2],1 µg/mL
same,MIC,[3],0.5 µg/mL
"Cc1ncc([N+](=O)[O-])n1CCO [MTZ, metronidazole]",MIC,[1],1 µg/mL
same,"Susceptibility category by MIC breakpoints, MTZ","[1]; EB-AMDK39, MTZ breakpoints",S (≤8)
same,"Susceptibility category by MIC breakpoints, MTZ","[2]; ATCC BAA-835, MTZ breakpoints",S (≤8)
same,MIC,[2],≤ 0.25 µg/mL
same,MIC,[3],2 µg/mL
"COc1c(N2C[C@@H]3CCCN[C@@H]3C2)c(F)cc2c(=O)c(C(=O)O)cn(C3CC3)c12 [MXF, moxifloxacin]",MIC,[1],> 32 µg/mL
same,"Susceptibility category by MIC breakpoints, MXF","[1]; EB-AMDK39, MXF breakpoints",R (≥8)
same,"Susceptibility category by MIC breakpoints, MXF","[2]; ATCC BAA-835, MXF breakpoints",R (≥8)
same,MIC,[2],> 32 µg/mL
same,MIC,[3],8 µg/mL
Piperacillin-tazobactam [PTZ],"Susceptibility category by MIC breakpoints, PTZ","[1]; EB-AMDK39, PTZ breakpoints",S (≤32/4)
same,"Susceptibility category by MIC breakpoints, PTZ","[2]; ATCC BAA-835, PTZ breakpoints",S (≤32/4)
same,"MIC, QC ATCC 297415","[3]; broth microdilution, QC strain",8/4
